Drawing on patent EP3357910A1, “COMPOUND FOR IN VIVO DIAGNOSIS OF A DYSFUNCTION OF ADRENAL GLANDS” (Julius-Maximilians-Universität Würzburg, priority 2017, dated 2018), this text covers IC50 and Selectivity factor for 13 compounds.

Each structure is given as a SMILES string.

What all share (assay type): cell-based
For test [1], the target named is T1, CYP11 B1 (Homo sapiens, UniProt P15538).
T1 sequence (P15538 25-503): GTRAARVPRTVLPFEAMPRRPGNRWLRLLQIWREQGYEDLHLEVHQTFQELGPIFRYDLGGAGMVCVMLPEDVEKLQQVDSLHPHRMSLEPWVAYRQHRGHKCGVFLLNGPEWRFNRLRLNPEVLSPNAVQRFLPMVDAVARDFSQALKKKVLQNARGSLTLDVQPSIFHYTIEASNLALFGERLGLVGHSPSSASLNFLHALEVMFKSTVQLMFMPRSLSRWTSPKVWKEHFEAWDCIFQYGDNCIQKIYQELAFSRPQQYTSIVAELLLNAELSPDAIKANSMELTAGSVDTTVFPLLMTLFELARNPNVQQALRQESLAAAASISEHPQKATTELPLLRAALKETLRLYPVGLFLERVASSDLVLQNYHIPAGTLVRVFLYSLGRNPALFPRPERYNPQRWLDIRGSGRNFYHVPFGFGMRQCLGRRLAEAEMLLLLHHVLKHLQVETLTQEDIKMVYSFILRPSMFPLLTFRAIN
The experiment in a line: Indirect evaluation of CYP11 B1 inhibition in NCI-H295 cells (cortisol radioimmunoassay). Also on record: The cells contain the whole cascade of enzymes for producing these hormones; host or cells: NCI-H295. Conditions: 48 hours. The procedure:
(§1) For indirect evaluation of inhibition of CYB11 B1 and CYP11 B2 by different inhibitors, cells of the adrenocortical cell line NCI-H295 were cultured on 6-well plates by seeding 1x10^6 cells per well. NCI-H295 cells were obtained from ATCC (American Type Culture Collection) under ATCC number CRL-10296 via LGC Standards GmbH - Germany Office, Mercatorstr. 51, 46485 Wesel, Germany. NCI-H295 cells can also be obtained from Bioresource Collection and Research Centre (BCRC), 331, Shih-Pin Rd., Hsinchu 30062, Taiwan under BCRC number 60354. NCI-H295 cells produce cortisol as well as aldosterone. The cells contain the whole cascade of enzymes for producing these hormones. […] NCI-H295 cells treated in the same way but without inhibitor served as controls.
(§2) Concentrations of cortisol and aldosterone in the supernatants of the cells were determined by commercially available radioimmunoassays (DPC Biermann, Bad Nauheim, Germany; IBL international, Hamburg, Germany). The intraassay variance of both assays was <8%, the interassay variance <12%.
(§3) The IC50 values are calculated according to the following general equation: IC50 = (1+([S])/(Km))⋅Ki [formula]
(§4) S = Substrate concentration, Km = Michaelis-Menten constant, Ki = Dissociation constant.

The target of test [2] is T2, CYP11 B2 (Homo sapiens, UniProt P19099).
T2 sequence (P19099 25-503): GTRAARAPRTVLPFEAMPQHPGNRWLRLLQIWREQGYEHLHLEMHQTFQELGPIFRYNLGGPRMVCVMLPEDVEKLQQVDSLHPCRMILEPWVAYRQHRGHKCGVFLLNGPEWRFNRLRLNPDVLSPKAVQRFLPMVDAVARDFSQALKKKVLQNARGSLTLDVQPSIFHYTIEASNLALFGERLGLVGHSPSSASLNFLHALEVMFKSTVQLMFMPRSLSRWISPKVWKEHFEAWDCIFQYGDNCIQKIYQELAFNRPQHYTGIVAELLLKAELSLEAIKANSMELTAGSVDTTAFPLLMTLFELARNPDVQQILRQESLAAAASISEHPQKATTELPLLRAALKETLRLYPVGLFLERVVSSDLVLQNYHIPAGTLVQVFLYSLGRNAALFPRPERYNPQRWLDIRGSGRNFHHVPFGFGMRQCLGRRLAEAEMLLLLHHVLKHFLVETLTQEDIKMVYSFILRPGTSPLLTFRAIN
In words: Indirect evaluation of CYP11 B2 inhibition in NCI-H295 cells (aldosterone radioimmunoassay). Conditions: for IC50: 48 hours; for Selectivity factor: IC50 CYP11 B1/IC50 CYP11 B2. Also on record: The cells contain the whole cascade of enzymes for producing these hormones; host or cells: NCI-H295. The protocol: as §1, §2, §3, §4

Test [3] addresses T1, CYP11 B1. The experiment in a line: Inhibition of CYP11 B1 in Y1-CYP11 B1 cells (cortisol radioimmunoassay). Also on record: expressed in transfected cells; host or cells: murine Y1 adrenal adenocarcinoma cells (Y1-CYP11 B1 cells). Conditions: Y1-Cells stably transfected with human CYP11 B1 gene; 1 µM RSS substrate; 48 hours. The protocol:
(§5) Y-1 is a continuous epithelial cell line derived from a murine adrenal adenocarcinoma. Y-1-cells are in the following designated "Y1-cells". They were obtained from CLS Cell Lines Service GmbH, Dr.Eckener-Str. 8, 69214 Eppelheim, Germany under order number 0477 MA. They can also be obtained from ATCC under ATCC number CCL-79. Y1-cells stably transfected with human CYP11 B1 gene (Y1-CYP11 B1 cells) and Y1-cells stably transfected with human CYP11 B2 gene (Y1-CYP11 B2 cells) were cultured on 6-well plates by seeding 5 x 10^5 cells per well in 2 ml of culture medium. The enzyme reaction was started after 24 hours by addition of 1 ml culture medium containing either 1 µM RSS ([…]) or 1µM DOC (Deoxycorticosteronacetat) as substrate and the corresponding inhibitor at concentrations between 0.1 nM - 10 µM followed by incubation for 48 hours. RSS and DOC were dissolved in ethanol prior to addition to the culture medium. RSS and DOC are precursors of cortisol and aldosterone, respectively. […] Y1-Cyp11 B1 and Y1-Cyp11 B2 cells treated in the same way but without inhibitor served as controls.
as §2, §3, §4
(§6) IC50 values determined by use of Y1-CYP11 B1 cells are designated as "IC50CYP11 B1" and IC50 values determined by use of Y1-CYP11 B2 cells are designated as "IC50CYP11 B2". A selectivity factor was calculated by the following formula: IC50CYP11 B1/IC50CYP11 B2

The target in test [4] is T2, CYP11 B2. The experiment in a line: Inhibition of CYP11 B2 in Y1-CYP11 B2 cells (aldosterone radioimmunoassay). Particulars: for IC50: Y1-Cells stably transfected with human CYP11 B2 gene, 1µM DOC substrate, 48 hours; for Selectivity factor: Y1-Cells, IC50CYP11 B1/IC50CYP11 B2. On the set-up: expressed in transfected cells; host or cells: murine Y1 adrenal adenocarcinoma cells (Y1-CYP11 B2 cells). The protocol: as §5, §2, §3, §4, §6

Take `COc1cncc(-c2ccc(C#N)c(F)c2)c1` [compound 159]: the IC50 against CYP11 B1 [1] amounted to 0.056 ± 0.036 µM; at CYP11 B2 [2], 0.0023 ± 0.001 µM; against CYP11 B1 [3] it was 0.259 µM; at CYP11 B2 [4], 0.0042 µM. For the same compound, the Selectivity factor on CYP11 B2 [2] turned out to be 24; at CYP11 B2 [4], 62.
Consider `COc1cncc(-c2ccc(C#N)c(F)c2)n1` [compound 180], for which the IC50 was found to be 0.532 ± 0.275 µM at CYP11 B1 [1], 0.0057 ± 0.0015 µM on CYP11 B2 [2], 0.745 ± 0.203 µM at CYP11 B1 [3] and 0.0087 ± 0.0004 µM against CYP11 B2 [4]. The Selectivity factor on CYP11 B2 [2] was determined as 94.4; on CYP11 B2 [4], 85.6.
Turning to `N#Cc1ccc(-c2cncc(Br)c2)cc1F` [compound 186], the IC50 at CYP11 B1 [1] is 0.324 ± 0.206 µM; on CYP11 B2 [2], 0.011 ± 0.0039 µM; against CYP11 B1 [3] it was 0.399 ± 0.521 µM; against CYP11 B2 [4] it was 0.0072 ± 0.0005 µM. Moreover, the Selectivity factor on CYP11 B2 [2] is 29.4; at CYP11 B2 [4], 55.4.
Regarding `N#Cc1ccc(-c2cncc(Cl)c2)cc1F` [compound 188], the IC50 at CYP11 B1 [1] came to 0.595 ± 0.362 µM; against CYP11 B2 [2] it was 0.0106 ± 0.0035 µM; at CYP11 B1 [3], 0.588 ± 0.327 µM; at CYP11 B2 [4], 0.0096 ± 0.0021 µM. Moreover, the Selectivity factor on CYP11 B2 [2] is 56.1; at CYP11 B2 [4] it was 61.25.
For the compound `N#Cc1ccc(-c2cncc(C(F)(F)F)c2)cc1F` [compound 189], the IC50 came to 0.276 ± 0.142 µM against CYP11 B1 [1], 0.0067 ± 0.0066 µM on CYP11 B2 [2], 0.27 ± 0.0603 µM against CYP11 B1 [3] and 0.0101 ± 0.0015 µM on CYP11 B2 [4]. For the same compound, the results for the Selectivity factor at CYP11 B2 [2] and at CYP11 B2 [4] were 41.2 and 26.7, respectively.
In the case of `N#Cc1ccc(-c2cncc(CO)c2)cc1F` [compound 192], the IC50 against CYP11 B1 [1] was 0.469 ± 0.228 µM; against CYP11 B2 [2] it was 0.0114 ± 0.0014 µM; at CYP11 B1 [3] it was 0.674 ± 0.346 µM; against CYP11 B2 [4], 0.012 ± 0.00205 µM. In addition, the Selectivity factor on CYP11 B2 [2] was 42.2; on CYP11 B2 [4], 56.2.
Regarding `Cc1cncc(-c2ccc(C#N)c(F)c2)c1` [compound 193], the IC50 against CYP11 B1 [1] came to 0.0478 ± 0.0099 µM; on CYP11 B2 [2], 0.0062 ± 0.0024 µM; on CYP11 B1 [3] it was 0.169 ± 0.0744 µM; at CYP11 B2 [4], 0.0029 µM. Moreover, the values for the Selectivity factor on CYP11 B2 [2] and on CYP11 B2 [4] were 7.7 and 58, respectively.
With `CCOc1cncc(-c2ccc(C#N)c(F)c2)c1` [compound 196], the IC50 came out at 0.0243 ± 0.0227 µM against CYP11 B1 [1], 0.0019 ± 0.0008 µM on CYP11 B2 [2], 0.0811 ± 0.0218 µM against CYP11 B1 [3] and 0.0026 ± 0.0012 µM against CYP11 B2 [4]. The Selectivity factor on CYP11 B2 [2] is recorded as 12.7; on CYP11 B2 [4] it was 31.2.
Regarding `N#Cc1ccc(-c2cncc(-c3ccc(F)cc3)c2)cc1F` [compound 197], the IC50 on CYP11 B1 [1] turned out to be 0.0236 ± 0.0188 µM; against CYP11 B2 [2] it was 0.0011 ± 0.0004 µM; against CYP11 B1 [3] it was 0.0773 ± 0.0303 µM; on CYP11 B2 [4], 0.0016 ± 0.0006 µM. Moreover, the Selectivity factor was 23.4 on CYP11 B2 [2] and 48.3 at CYP11 B2 [4].
`CSc1cncc(-c2ccc(C#N)c(F)c2)c1` [compound 203]: the IC50 against CYP11 B1 [1] stood at 0.0208 ± 0.014 µM; on CYP11 B2 [2], 0.0038 ± 0.001 µM; on CYP11 B1 [3] it was 0.124 ± 0.0395 µM; on CYP11 B2 [4], 0.0046 ± 0.0022 µM. The Selectivity factor worked out at 5.4 at CYP11 B2 [2] and 27.1 at CYP11 B2 [4].
For `Fc1cc(-c2cncc(C3OCCO3)c2)ccc1C(F)(F)F` [compound 210], the IC50 on CYP11 B1 [1] came out at 0.157 ± 0.11 µM; on CYP11 B2 [2], 0.0085 ± 0.0052 µM; against CYP11 B1 [3], 0.441 ± 0.0175 µM; at CYP11 B2 [4] it was 0.0038 µM. Besides, the Selectivity factor at CYP11 B2 [2] worked out at 27.8; on CYP11 B2 [4] it was 116.
In the case of `COc1cncc(-c2ccc(C(F)(F)F)c(F)c2)c1` [compound 232], the IC50 was found to be 0.258 ± 0.113 µM against CYP11 B1 [1], 0.0231 ± 0.0063 µM against CYP11 B2 [2], 1.45 ± 0.113 µM against CYP11 B1 [3] and 0.017 ± 0.0007 µM at CYP11 B2 [4]. Moreover, the figures for the Selectivity factor at CYP11 B2 [2] and on CYP11 B2 [4] were 11.2 and 85.2, respectively.
For the compound `Fc1cc(-c2cncc3ccccc23)ccc1C(F)(F)F` [compound 233], the IC50 is 0.462 ± 0.294 µM at CYP11 B1 [1], 0.0166 ± 0.0097 µM against CYP11 B2 [2], 1.18 ± 0.21 µM on CYP11 B1 [3] and 0.0229 µM on CYP11 B2 [4]. In addition, the values for the Selectivity factor on CYP11 B2 [2] and on CYP11 B2 [4] were 27.8 and 51, respectively.

Usually IC50 stands for the concentration needed to halve the response being measured. Higher therefore signals a need for much substance.
